Laboratory results reported in patent publication US20250108038A1 (priority 2023, published 2025).

What was measured:
[1] = Stability in components of human blood; assay type: in vitro ADME; details: 0.5 mM, 37° C., 0-120 min
Protocol: FIG. 3A. […] Compound I-19 in components of human blood. Red blood cells and plasma were isolated from whole blood. […] Values represent mean+SEM of n=3 separate experiments.
FIG. 3B. Stability of Compound I-4 in components of human blood. Red blood cells and plasma were isolated from whole blood. […] Values represent mean+SEM of n=3 separate experiments.
Human and rat blood were centrifuged to separate out red blood cells at 1174×g for 15 min. The upper plasma level was aspirated with a micropipette and placed in a bleach solution for disposal. The RBC pellet was resuspended in sterile isotonic saline. The pellet was gently resuspended by rocking the tube. The sample was then centrifuged again to collect the RBC pellet and then resuspended and washed one more time following the same procedure. A total of three was done. Following the last wash and centrifugation, the RBCs were resuspended with PBS; and mixed by inversion. Aliquots of the resuspended and washed RBCs were then placed into 4 reaction tubes. These tubes were centrifuged to collect the RBCs. The fluid level was marked on each tube, then the supernatant was aspirated off and the cells resuspended with room temperature PBS pH 7.4 to the original mark. An aliquot of the RBC suspension was added to four sterile tubes containing PBS pH 7.4 at room temperature. […]

[2] = target: CYP2C9 (Homo sapiens, UniProt P11712)
CYP2C9, sequence (P11712 whole entry): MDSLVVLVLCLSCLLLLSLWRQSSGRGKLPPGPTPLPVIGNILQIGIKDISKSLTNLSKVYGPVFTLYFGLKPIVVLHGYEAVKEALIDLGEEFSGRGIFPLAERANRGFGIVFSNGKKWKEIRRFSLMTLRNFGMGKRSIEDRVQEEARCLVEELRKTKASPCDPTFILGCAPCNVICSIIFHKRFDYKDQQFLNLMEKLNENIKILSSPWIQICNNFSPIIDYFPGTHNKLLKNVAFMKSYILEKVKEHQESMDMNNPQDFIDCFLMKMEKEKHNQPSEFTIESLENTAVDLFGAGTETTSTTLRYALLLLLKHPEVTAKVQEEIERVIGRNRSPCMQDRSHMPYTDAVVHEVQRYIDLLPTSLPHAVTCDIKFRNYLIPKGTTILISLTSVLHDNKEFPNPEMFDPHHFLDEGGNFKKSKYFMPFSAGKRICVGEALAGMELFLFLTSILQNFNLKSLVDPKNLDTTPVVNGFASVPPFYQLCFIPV

[3] = tested on: Wistar rats; assay: Five Choice Serial Reaction Time Task, vSD version, repeated administration; assay type: in vivo, Wistar rat; design: Latency (Correct) / Latency (Incorrect): unit not given here; details: for Latency (Correct) / Latency (Incorrect) / Magazine Head Entries / Omissions / Reward Latency / Trials Completed: vSD, mean ± SEM
Source text: The behavioral tasks utilized were three versions of the rat Five Choice Serial Reaction Time Task (5C-SRTT), the standard version of the task (STD) with a fixed stimulus duration and a fixed intertrial interval, the variable stimulus duration (vSD) and the variable intertrial interval (vITI) version. The principal readout parameters in each task were the % Hit and the % correct choices (measures of sustained attention) and three measures of inhibitory response control (premature, perseverative, and timeout responses), although a number of additional outcome measures were obtained (see under Methods and Results below).
Twenty-four adult (approx. 10 months old) male Wistar rats (Envigo, Inc, Indianapolis, IN) were used in the study. […] Subjects were double housed in polycarbonate cages (45×30×18 cm) with corncob bedding in a vivarium of constant temperature (21-23° C.) and humidity (40-50%). […] All behavioral testing was performed during the light portion (9 a.m.-5 p.m.) of the light/dark cycle (Monday thru Friday). Animals were cared for in accordance with the Guide for the Care and Use of Laboratory Animals (U.S. National Institutes of Health) and the experimental protocols were approved by the Institutional Animal Care and Use Committee at Augusta University (Protocol #2010-0044).
The 5C-SRTT procedure (reviewed, Robbins, 2002. Psychopharmacology (Berl); 163(3-4):362-80) was conducted as we have described previously (Terry et al., 2014, Neurotoxicology and Teratology 44:18-29, 2014; Callahan et al., 2020, Neuropharmacology. August 15; 173:107994). […] Animals were trained in eight automated 5C-SRTT operant chambers (Med Associates, St. Albans, VT, USA), controlled by MedPC software (Med Associates). Briefly, each operant chamber was equipped with 5 apertures containing a photocell beam to detect nose pokes and a lamp (2.8 W) that could be illuminated randomly at varying durations. Food pellets (45 mg chow pellet, BioServ, Frenchtown, NJ, USA) were delivered automatically to a magazine, located on the opposite wall to the nose pokes, that was also equipped with a light that turned on to indicate that a pellet had been dispensed. The house-light remained on for the entire session unless an error or omission occurred. Training sessions began with the delivery of a food reward and retrieval triggered the first trial. […] Sessions ended when 40 minutes had lapsed or 100 trials had been completed.
For this study, subjects were re-trained 5 days per week until they re-established a stable performance criteria with a fixed (1.0 sec) stimulus duration and a fixed ITI (5 sec) of 70-75% accuracy, <20% omissions and completion of all 100 trials for 5 consecutive days. Upon meeting these performance criteria animals were trained for one additional week and two groups of subjects (N=12) were assembled and balanced according to their performance accuracy, specifically the % Hit evaluation, which takes into account correct responses as well as all incorrect responses including the number of omissions. […] The vSD version of the task increases the attentional load while the vITI increases impulsivity-like behavior. The following outcome measures and behavioral domains were assessed: % Hit and % correct=sustained attention; omissions=attention/motivation; premature responses=impulsivity; perseverative responses=compulsivity; timeout responses=cognitive inflexibility; magazine head entries=appetitive motivation and compulsivity-like behavior; response latencies=information processing speed and/or motivation. For the STD version of the task, the stimulus duration (SD) was fixed at 1.0 sec and the ITI was fixed at 5 sec. In the vSD version of the task the following stimulus durations were presented in a pseudorandom manner: 0.3, 0.6, and 0.9 sec. In the vITI version, 2.5, 5.0, and 10.0 sec ITIs were employed in a pseudorandom manner. […]

[4] = tested on: C57BL/6 mice; assay: SmartCage locomotor activity monitoring; assay type: in vivo, mouse; details: 0.3, 1.0, 3.0 and 10 mg/kg, IP, 24 h
[5] = target: CYP2D6 (Homo sapiens, UniProt P10635); assay: biochemical
CYP2D6, sequence (P10635 whole entry): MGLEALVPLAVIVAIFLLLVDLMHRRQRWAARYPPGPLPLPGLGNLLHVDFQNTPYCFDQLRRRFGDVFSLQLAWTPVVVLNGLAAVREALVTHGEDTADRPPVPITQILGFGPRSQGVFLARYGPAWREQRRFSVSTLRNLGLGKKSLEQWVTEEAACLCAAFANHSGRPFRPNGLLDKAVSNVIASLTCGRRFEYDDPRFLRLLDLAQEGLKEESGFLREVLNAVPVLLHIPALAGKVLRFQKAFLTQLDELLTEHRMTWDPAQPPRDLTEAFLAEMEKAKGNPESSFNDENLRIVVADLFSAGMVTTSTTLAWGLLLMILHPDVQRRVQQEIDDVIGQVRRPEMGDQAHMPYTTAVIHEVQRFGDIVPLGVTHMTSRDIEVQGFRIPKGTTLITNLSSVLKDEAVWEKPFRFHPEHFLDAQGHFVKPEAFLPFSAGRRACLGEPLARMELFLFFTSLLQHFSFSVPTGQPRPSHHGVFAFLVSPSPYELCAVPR

[6] = Group 1, 0.1 mg/kg, Drug Exp period
[7] = Group 1, 0.1 mg/kg, Post-Drug Exp (vehicle washout) period
[8] = Group 2, 0.3 mg/kg, Drug Exp period
[9] = Group 2, 0.3 mg/kg, Post-Drug Exp (vehicle washout) period

With `Clc1ccc(C2(OCC3OCCO3)c3ccccc3C3=NCCN32)cc1` (centres unmarked) [Compound I-19] the “% parent compound remaining” value ([1]; human red blood cells) was “time-dependent decrease in the amount of parent compound present”, the “% parent compound remaining” value ([1]; human whole blood) was “time-dependent decrease in the amount of parent compound present” and the “Inhibition at Highest Test Article Concentration” value ([2]; 2C9, Diclofenac, at 50 μM) was 53.3 at 50 μM %. The IC50 ([2]; pooled human liver microsomes, 30 min) was “did not inhibit”, the “% Hit” value ([3]; repeated 0.1 and 0.3 mg/kg IP) was “modest decrease in accuracy that was limited to the 0.6 sec stimulus duration” and the premature responses ([3]; repeated 0.1 and 0.3 mg/kg IP) was “reduced the number of premature responses compared to post-drug conditions”. The “Latency (Correct)” value [3, 6] was 0.99, the “Latency (Incorrect)” value [3, 6] was 2.17 and the “Magazine Head Entries” value [3, 6] was 168.21 ± 10.60. The Omissions [3, 6] was 15.79, the “Reward Latency” value [3, 6] was 2.44 and the “Trials Completed” value [3, 6] was 94.17 ± 2.75. For the same compound, the “Latency (Correct)” value [3, 7] was 0.86 ± 0.03, the “Latency (Incorrect)” value [3, 7] was 1.90 ± 0.09 and the “Magazine Head Entries” value [3, 7] was 189.79 ± 14.47. The Omissions [3, 7] was 8.12 ± 1.63, the “Reward Latency” value [3, 7] was 2.13 and the “Trials Completed” value [3, 7] was 97.79 ± 2.21. For the same compound, the “Latency (Correct)” value [3, 8] was 0.91, the “Latency (Incorrect)” value [3, 8] was 2.21 and the “Magazine Head Entries” value [3, 8] was 208.46 ± 28.88. The Omissions [3, 8] was 14.08, the “Reward Latency” value [3, 8] was 2.99 and the “Trials Completed” value [3, 8] was 98.29 ± 0.84. For the same compound, the “Latency (Correct)” value [3, 9] was 0.76, the “Latency (Incorrect)” value [3, 9] was 1.65 ± 0.08 and the “Magazine Head Entries” value [3, 9] was 245.17 ± 33.79. For the same compound, the Omissions [3, 9] was 5.79 ± 1.35, the “Reward Latency” value [3, 9] was 2.11 and the “Trials Completed” value [3, 9] was 100.00. The “home cage activity (activity, rearing, velocity, distance)” value [4] was “no significant effect on the diurnal or nocturnal activity measures”.

For `OC1(c2ccc(Cl)cc2)c2ccccc2C2=NCCN21` (centres unmarked) [Compound A, 5-(4-chlorophenyl)-2,3-dihydroimidazo[1,2-b]isoindol-5-ol, reference compound], the IC50 [5] was 4.16 µM.
